Calls of active or inactive are those of the source. The rule behind the calls is not given here.
Columns and labels:
HCT-116 [1] = assay: Upregulation of CDK1 level in human HCT-116 cells at 1 uM in presence of SN-38 by Western blot analysis; type: functional, cell-based
[2] = biological target: T1, Protein cereblon/Poly [ADP-ribose] polymerase 1 (Homo sapiens, UniProt P09874+Q96SW2); assay: PROTAC activity at CRBN/PARP1 in human HCT-116 cells assessed as decrease in PARP1 level at 1 uM measured after 4 hrs; type: cell-based
Target sequence in this assay (P09874 2-1014 limits assumed): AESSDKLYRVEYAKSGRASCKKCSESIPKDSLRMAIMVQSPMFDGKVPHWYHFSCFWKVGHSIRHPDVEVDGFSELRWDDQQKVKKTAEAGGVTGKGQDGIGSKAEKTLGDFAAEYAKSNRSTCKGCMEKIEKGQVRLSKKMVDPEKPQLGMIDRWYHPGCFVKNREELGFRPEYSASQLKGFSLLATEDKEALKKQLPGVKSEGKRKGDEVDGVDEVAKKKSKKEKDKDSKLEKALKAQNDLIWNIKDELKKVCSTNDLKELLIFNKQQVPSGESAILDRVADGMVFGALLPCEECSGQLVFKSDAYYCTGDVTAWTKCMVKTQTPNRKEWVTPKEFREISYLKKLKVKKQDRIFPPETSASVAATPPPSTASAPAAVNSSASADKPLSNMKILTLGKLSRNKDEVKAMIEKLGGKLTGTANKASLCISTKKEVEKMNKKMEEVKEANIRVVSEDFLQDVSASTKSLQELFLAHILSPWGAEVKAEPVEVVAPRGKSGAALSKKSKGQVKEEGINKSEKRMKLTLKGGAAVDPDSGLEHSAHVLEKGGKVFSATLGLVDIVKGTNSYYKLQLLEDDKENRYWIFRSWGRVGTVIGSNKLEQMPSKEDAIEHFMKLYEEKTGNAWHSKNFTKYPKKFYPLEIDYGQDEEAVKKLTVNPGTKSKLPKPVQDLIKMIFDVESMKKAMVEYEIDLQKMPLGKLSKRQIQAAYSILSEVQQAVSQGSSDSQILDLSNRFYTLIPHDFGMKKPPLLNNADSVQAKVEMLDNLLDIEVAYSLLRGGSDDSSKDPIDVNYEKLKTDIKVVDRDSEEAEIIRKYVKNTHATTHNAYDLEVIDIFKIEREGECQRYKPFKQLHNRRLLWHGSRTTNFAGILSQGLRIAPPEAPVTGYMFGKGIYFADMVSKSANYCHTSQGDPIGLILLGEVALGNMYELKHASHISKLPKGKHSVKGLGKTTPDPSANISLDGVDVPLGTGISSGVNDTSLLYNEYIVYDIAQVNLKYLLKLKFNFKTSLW
Target sequence in this assay (Q96SW2 whole entry partner): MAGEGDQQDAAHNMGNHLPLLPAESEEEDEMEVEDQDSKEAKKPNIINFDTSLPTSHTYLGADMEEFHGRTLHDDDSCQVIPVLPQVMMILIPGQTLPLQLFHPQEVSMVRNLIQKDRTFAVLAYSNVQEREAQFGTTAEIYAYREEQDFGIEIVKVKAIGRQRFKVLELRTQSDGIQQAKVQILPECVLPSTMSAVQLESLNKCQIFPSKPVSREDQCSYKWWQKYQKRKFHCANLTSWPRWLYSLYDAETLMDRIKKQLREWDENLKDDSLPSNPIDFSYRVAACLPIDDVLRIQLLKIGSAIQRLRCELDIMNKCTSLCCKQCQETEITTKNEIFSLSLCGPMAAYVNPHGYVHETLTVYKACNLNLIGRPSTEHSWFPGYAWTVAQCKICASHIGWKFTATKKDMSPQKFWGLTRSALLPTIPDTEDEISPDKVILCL

HCT-116 [3] = assay: Upregulation of ATP5PD level in human HCT-116 cells at 1 uM in presence of SN-38 by KEGG enrichment analysis; type: functional, cell-based
[4] = biological target: T1, Protein cereblon/Poly [ADP-ribose] polymerase 1; assay: PROTAC activity at CRBN/PARP1 in human RKO cells assessed as degradation of PARP1 measured after 24 hrs; type: cell-based
Target sequence in this assay (P09874 whole entry): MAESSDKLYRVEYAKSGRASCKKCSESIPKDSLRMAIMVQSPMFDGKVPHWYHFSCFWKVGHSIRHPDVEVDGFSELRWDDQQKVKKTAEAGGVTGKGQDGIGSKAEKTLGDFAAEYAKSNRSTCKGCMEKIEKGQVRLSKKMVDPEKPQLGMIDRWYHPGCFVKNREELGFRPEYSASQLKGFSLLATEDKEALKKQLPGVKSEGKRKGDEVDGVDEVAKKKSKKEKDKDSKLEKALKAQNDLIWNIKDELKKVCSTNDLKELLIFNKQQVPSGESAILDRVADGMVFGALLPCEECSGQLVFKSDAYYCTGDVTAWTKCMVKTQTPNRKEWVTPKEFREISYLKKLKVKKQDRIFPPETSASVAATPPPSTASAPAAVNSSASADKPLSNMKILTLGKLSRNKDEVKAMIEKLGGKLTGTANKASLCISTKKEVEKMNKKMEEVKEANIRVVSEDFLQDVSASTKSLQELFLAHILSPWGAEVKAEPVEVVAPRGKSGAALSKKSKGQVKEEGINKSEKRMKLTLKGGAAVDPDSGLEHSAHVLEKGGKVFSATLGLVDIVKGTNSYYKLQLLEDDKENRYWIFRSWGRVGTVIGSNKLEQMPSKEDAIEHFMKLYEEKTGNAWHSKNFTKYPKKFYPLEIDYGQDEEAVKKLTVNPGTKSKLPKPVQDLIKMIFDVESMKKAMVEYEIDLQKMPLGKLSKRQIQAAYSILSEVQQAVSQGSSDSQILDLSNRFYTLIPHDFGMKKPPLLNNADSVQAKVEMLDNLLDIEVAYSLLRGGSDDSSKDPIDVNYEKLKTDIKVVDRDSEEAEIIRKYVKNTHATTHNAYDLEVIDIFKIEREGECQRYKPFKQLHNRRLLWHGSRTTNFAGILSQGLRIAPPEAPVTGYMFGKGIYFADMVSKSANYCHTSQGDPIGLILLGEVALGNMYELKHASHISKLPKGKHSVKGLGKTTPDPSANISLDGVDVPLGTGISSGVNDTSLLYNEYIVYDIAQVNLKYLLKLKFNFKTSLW
Target sequence in this assay (Q96SW2 whole entry): as the sequence (Q96SW2 whole entry partner) above

HCT-116 [5] = assay: Synergistic antiproliferative activity against human HCT-116 cells assessed as combination index at 4 uM measured after 72 hrs in presence of 2.5 nM of SN-38 by CCK-8 method; type: functional
HCT-116 [6] = assay: Antagonistic antiproliferative activity against human HCT-116 cells assessed as combination index at 2 uM measured after 72 hrs in presence of 0.625 nM of SN-38 by CCK-8 method; type: functional
HCT-116 [7] = assay: Induction of cell cycle arrest in human HCT-116 cells assessed as accumulation of cells at G2/M phase at 1 uM measured after 72 hrs in presence of SN-38 by PI staining based flow cytometry analysis; type: functional
HCT-116 [8] = assay: Synergistic antiproliferative activity against human HCT-116 cells assessed as combination index at 4 uM measured after 72 hrs in presence of 0.625 nM of SN-38 by CCK-8 method; type: functional
HCT-116 [9] = assay: Synergistic antiproliferative activity against human HCT-116 cells assessed as combination index at 2 uM measured after 72 hrs in presence of 5 nM of SN-38 by CCK-8 method; type: functional
LoVo = assay: Cytotoxicity against human LoVo cells assessed as inhibition of cell growth measured after 72 hrs by CCK-8 method; type: functional, cell-based
HCT-116 [10] = assay: Antagonistic antiproliferative activity against human HCT-116 cells assessed as combination index at 2 uM measured after 72 hrs in presence of 1.25 nM of SN-38 by CCK-8 method; type: functional
HCT-116 [11] = assay: Synergistic antiproliferative activity against human HCT-116 cells assessed as combination index at 0.5 uM measured after 72 hrs in presence of 2.5 nM of SN-38 by CCK-8 method; type: functional
[12] = biological target: Protein cereblon/Poly [ADP-ribose] polymerase 2 (Homo sapiens, UniProt Q9UGN5+Q96SW2); assay: PROTAC activity at CRBN/PARP2 in human HCT-116 cells assessed as degradation of PARP2; type: cell-based
Chain of Protein cereblon/Poly [ADP-ribose] polymerase 2 (Q9UGN5 whole entry): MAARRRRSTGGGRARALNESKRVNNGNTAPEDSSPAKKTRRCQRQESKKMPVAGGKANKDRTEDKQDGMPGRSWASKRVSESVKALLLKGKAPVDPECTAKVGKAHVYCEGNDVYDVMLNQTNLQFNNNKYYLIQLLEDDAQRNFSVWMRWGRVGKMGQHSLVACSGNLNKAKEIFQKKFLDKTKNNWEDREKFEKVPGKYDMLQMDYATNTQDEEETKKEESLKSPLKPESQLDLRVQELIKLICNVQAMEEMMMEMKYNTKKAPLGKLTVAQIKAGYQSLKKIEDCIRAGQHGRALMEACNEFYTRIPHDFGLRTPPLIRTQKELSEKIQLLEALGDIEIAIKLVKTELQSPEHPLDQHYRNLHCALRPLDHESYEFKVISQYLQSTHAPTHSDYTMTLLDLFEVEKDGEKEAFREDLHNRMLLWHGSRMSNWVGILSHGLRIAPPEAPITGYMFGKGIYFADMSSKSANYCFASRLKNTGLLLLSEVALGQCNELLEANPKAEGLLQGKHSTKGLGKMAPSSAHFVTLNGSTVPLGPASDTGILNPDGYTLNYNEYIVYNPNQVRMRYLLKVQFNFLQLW
Chain of Protein cereblon/Poly [ADP-ribose] polymerase 2 (Q96SW2 whole entry): as the sequence (Q96SW2 whole entry partner) above

HCT-116 [13] = assay: Downregulation of KRT1 level in human HCT-116 cells at 1 uM in presence of SN-38 by KEGG enrichment analysis; type: functional, cell-based
HCT-116 [14] = assay: Effect on Ku70 protein level in human HCT-116 cells at 1 uM in presence of SN-38 by Western blot analysis; type: functional, cell-based
HCT-116 [15] = assay: Synergistic antiproliferative activity against human HCT-116 cells assessed as combination index at 1 uM measured after 72 hrs in presence of 1.25 nM of SN-38 by CCK-8 method; type: functional
[16] = biological target: T1, Protein cereblon/Poly [ADP-ribose] polymerase 1; assay: PROTAC activity at CRBN/PARP1 in human HCT-116 cells assessed as degradation of PARP1 at 1 uM in presence of MG132; type: cell-based
Target sequence in this assay (P09874 2-1014 limits assumed): as the sequence (P09874 2-1014 limits assumed) above
Target sequence in this assay (Q96SW2 whole entry partner): as the sequence (Q96SW2 whole entry partner) above

[17] = biological target: T1, Protein cereblon/Poly [ADP-ribose] polymerase 1; assay: PROTAC activity at CRBN/PARP1 in human HCT-116 cells assessed as degradation of PARP1 at upto 10 uM measured after 24 hrs relative to control; type: cell-based
Target sequence in this assay (P09874 2-1014 limits assumed): as the sequence (P09874 2-1014 limits assumed) above
Target sequence in this assay (Q96SW2 whole entry partner): as the sequence (Q96SW2 whole entry partner) above

HCT-116 [18] = assay: Synergistic antiproliferative activity against human HCT-116 cells assessed as combination index at 0.5 uM measured after 72 hrs in presence of 5 nM of SN-38 by CCK-8 method; type: functional
[19] = biological target: T1, Protein cereblon/Poly [ADP-ribose] polymerase 1; assay: PROTAC activity at CRBN/PARP1 in human RKO cells assessed as degradation of PARP1 at upto 10 uM measured after 24 hrs relative to control; type: cell-based
Target sequence in this assay (P09874 2-1014 limits assumed): as the sequence (P09874 2-1014 limits assumed) above
Target sequence in this assay (Q96SW2 whole entry partner): as the sequence (Q96SW2 whole entry partner) above

[20] = Cytotoxicity against human BEAS-2B cells assessed as inhibition of cell growth measured after 72 hrs by CCK-8 method; type: toxicity, cell-based
HCT-116 [21] = assay: Antagonistic antiproliferative activity against human HCT-116 cells assessed as combination index at 1 uM measured after 72 hrs in presence of 0.625 nM of SN-38 by CCK-8 method; type: functional
HCT-116 [22] = assay: Synergistic antiproliferative activity against human HCT-116 cells assessed as combination index at 2 uM measured after 72 hrs in presence of 2.5 nM of SN-38 by CCK-8 method; type: functional
HCT-116 [23] = assay: Synergistic antiproliferative activity against human HCT-116 cells assessed as combination index at 0.5 uM measured after 72 hrs in presence of 10 nM of SN-38 by CCK-8 method; type: functional
HCT-116 [24] = assay: Effect on BRCA protein level in human HCT-116 cells at 1 uM in presence of SN-38 by Western blot analysis; type: functional, cell-based
HCT-116 [25] = assay: Synergistic antiproliferative activity against human HCT-116 cells assessed as combination index at 2 uM measured after 72 hrs in presence of 10 nM of SN-38 by CCK-8 method; type: functional

In the case of NC(=O)c1cccc2cn(-c3ccc([C@@H]4CCCN(CCC5CCN(CCC6CCN(CC7CCN(c8ccc9c(c8)C(=O)N(C8CCC(=O)NC8=O)C9=O)CC7)CC6)CC5)C4)cc3)nc12 (stereo partly specified), the Activity (HCT-116 [1]) is reported as “Active”, the Activity [2] is reported as “Active” and the Activity (HCT-116 [3]) is reported as “Active”. The DC50 [4] was 0.161 µM, the CI (HCT-116 [5]) was 0.545 and the CI (HCT-116 [6]) was 1.241. For the same compound, the Activity (HCT-116 [7]) was “Active”, the CI (HCT-116 [8]) was 0.567 and the CI (HCT-116 [9]) was 0.752. The IC50 (LoVo) was 2.84 µM, the CI (HCT-116 [10]) was 1.092 and the CI (HCT-116 [11]) was 0.879. For the same compound, the DC50 [12] was 19.1 µM, the Activity (HCT-116 [13]) was “Active” and the Activity (HCT-116 [14]) was “inactive”. The CI (HCT-116 [15]) was 0.969, the Activity [16] was “inactive” and the Emax [17] was 96.5%. It also gave a CI (HCT-116 [18]) of 0.756, an Emax [19] of 95.9% and an IC50 at 72 h [20] of 8.29 µM. It also gave a CI (HCT-116 [21]) of 1.003, a CI (HCT-116 [22]) of 0.856 and a CI (HCT-116 [23]) of 0.753. For the same compound, the Activity (HCT-116 [24]) was “inactive” and the CI (HCT-116 [25]) was 0.766.

Source: ChEMBL document CHEMBL6120985, “Discovery of a potent PARP1 PROTAC as a chemosensitizer for the treatment of colorectal cancer” (Eur J Med Chem, 2025)
